The record followed here is PMC9050923, “6,N^2-Diaryl-1,3,5-triazine-2,4-diamines: synthesis, antiproliferative activity and 3D-QSAR modeling” (RSC Advances, 2020).

Holding throughout (format): cell-based
The test system of one assay is MCF-7. As to the kind of experiment: MTT assay, MCF-7 breast cancer cells. To be noted: Homo sapiens; for viability at 10 µM: MCF7, 10 μM, 72 h after the treatment, mean of three independent experiments, read-out: Percentage of cell viability MCF-7. How it is done: (§1) The prepared compounds 1–126 were tested on three breast cancer cell lines namely, MDA-MB231, SKBR-3 and MCF-7 using MTT assay. SKBR-3 and MCF-7 cell lines are estrogen and progesterone hormone positive cell lines often used as a model for the hormone therapy.[18] MDA-MB231 is triple negative breast cancer cell line, which is negative to estrogen and progesterone receptors and human epidermal growth factor receptor 2, a perfect model for chemotherapy.[18] Initially, all the prepared compounds 1–126 were tested on these three cancer cell lines at the screening concentration (10 μM) and percentage of cell viability was calculated 72 h after the treatment (Table 1).
(§2) The growth inhibitory effect of the compounds was determined on breast tumor cell line (MDA-MB231, SKBR-3 and MCF-7) at different concentrations with methotrexate and nilotinib as positive controls (Table 2).
(§3) The cytotoxic activity of 6,N^2-diaryl-1,3,5-triazine-2,4-diamines (1–126) was evaluated against three breast carcinoma cell lines (MDA-MB231, SKBR-3, and MCF-7) and normal breast cell line (MCF-10A) by MTT assay.[22] All cells were obtained from the American Type Culture Collection and were grown in 10% fetal bovine serum and 1% pen-strep antibiotic supplemented media (DMEM for MDA-MB231 and SKBR-3, RPMI for MCF-7, and MEGM for MCF-10A). For MTT assay, 20 000 to 75 000 cells per mL (based on the doubling time for each cell line) were seeded in 96 well plates and incubated for 24 h at 37 °C in 5% CO2 incubator. Then, compounds at different concentrations were added followed by the incubation at 37 °C for 72 h. After that, MTT solution (0.5 mg mL^−1) was added and the plates were incubated for another 4 h. The supernatant was then discarded and 100 μL of DMSO was added to each well. The plates were then read by Tecan NanoQuant (model: infinite m200 pro) plate reader and absorbance was measured at 570 nm. GI50 values were calculated using sigmoidal concentration–response curves (see ESI ^†) generated using the GraphPad Prism 7 program. Three independent experiments were carried out and the data were represented as mean of the three experiments.

Another assay deals with SKBR-3. As to the kind of experiment: MTT assay, SKBR-3 breast cancer cells. Conditions: Homo sapiens, SK-BR-3, MTT; for viability at 10 µM: 72 h after the treatment, mean of three independent experiments, read-out: Percentage of cell viability SKBR-3. How it is done:
as §1, §2, §3

The next assay concerns MDA-MB231. The assay is described as follows: MTT assay, MDA-MB231 breast cancer cells. Conditions: Homo sapiens, MDA-MB-231, MTT; for viability at 10 µM: 72 h after the treatment, mean of three independent experiments, read-out: Percentage of cell viability MDA-MB231; for GI50: 72 h, mean of three independent experiments ± SEM, read-out: GI50 (μM) ± SEM MDA-MB231. How it is done:
as §1, §2, §3
In general terms: Tetrazolium assays rely on reduction of a dye to a coloured formazan, in cell work by metabolically active cells.

What is called viability is a per cent measure of how many cells are alive, often set against a control. With `Nc1nc(Nc2ccccc2)nc(-c2ccccc2)n1` [Compound 1], the viability at 10 µM stood at 90% with MCF-7, 81% with SKBR-3 and 87% with MDA-MB231.

As for `Nc1nc(Nc2ccccc2Cl)nc(-c2ccccc2)n1` [Compound 4, N ^2-(2-Chlorophenyl)-6-phenyl-1,3,5-triazine-2,4-diamine], the viability at 10 µM in the assay with MCF-7 came out at 81%; in the assay on SKBR-3 it was 88%; with MDA-MB231, 72%.

Regarding `Nc1nc(Nc2ccc(Cl)cc2)nc(-c2ccccc2)n1` [Compound 5], the results for the viability at 10 µM in the assay with MCF-7, with SKBR-3 and in the assay on MDA-MB231 were 100%, 94% and 65%, respectively.

As for `Nc1nc(Nc2ccc(Br)cc2)nc(-c2ccccc2)n1` [Compound 6], the results for the viability at 10 µM in the assay with MCF-7, with SKBR-3 and in the assay on MDA-MB231 were 100%, 97% and 65%, respectively.

In the case of `Cc1ccc(Nc2nc(N)nc(-c3ccccc3)n2)cc1` [Compound 7], the viability at 10 µM with MCF-7 stood at 87%; with SKBR-3, 87%; in the assay with MDA-MB231, 98%.

For `COc1ccccc1Nc1nc(N)nc(-c2ccccc2)n1` [Compound 8], the viability at 10 µM came out at 91% in the assay with MCF-7, 97% with SKBR-3 and 78% with MDA-MB231.

With `COc1ccc(Nc2nc(N)nc(-c3ccccc3)n2)cc1` [Compound 9], the viability at 10 µM in the assay on MCF-7 is 84%; in the assay on SKBR-3 it was 96%; with MDA-MB231, 98%.

Take `Nc1nc(Nc2ccc(OC(F)(F)F)cc2)nc(-c2ccccc2)n1` [Compound 10]: the viability at 10 µM in the assay with MCF-7 turned out to be 92%; in the assay with SKBR-3, 86%; with MDA-MB231 it was 96%.

For `CC(C)c1ccc(Nc2nc(N)nc(-c3ccccc3)n2)cc1` [Compound 11], the results for the viability at 10 µM with MCF-7, in the assay with SKBR-3 and with MDA-MB231 were 99%, 86% and 99%, respectively.

In the case of `Nc1nc(Nc2cccnc2)nc(-c2ccccc2)n1` [Compound 12], the viability at 10 µM was 87% with MCF-7, 78% with SKBR-3 and 59% with MDA-MB231.

With `Nc1nc(Nc2ccccc2)nc(-c2cccc(F)c2)n1` [Compound 13], the viability at 10 µM in the assay with MCF-7 was 89%; in the assay on SKBR-3 it was 100%; with MDA-MB231 it was 100%.

In the case of `Nc1nc(Nc2ccc(Cl)cc2)nc(-c2cccc(F)c2)n1` [Compound 15], the viability at 10 µM with MCF-7 was 89%; with SKBR-3, 100%; in the assay with MDA-MB231, 100%.

As for `CC(C)c1ccc(Nc2nc(N)nc(-c3cccc(F)c3)n2)cc1` [Compound 20], the values for the viability at 10 µM with MCF-7, with SKBR-3 and in the assay on MDA-MB231 were 92%, 100% and 100%, respectively.

Regarding `Nc1nc(Nc2ccccc2)nc(-c2ccc(F)cc2)n1` [Compound 21], the viability at 10 µM with MCF-7 stood at 100%; in the assay with SKBR-3, 94%; with MDA-MB231, 83%.

With `Nc1nc(Nc2ccccc2F)nc(-c2ccc(F)cc2)n1` [Compound 22], the viability at 10 µM in the assay with MCF-7 was found to be 100%; in the assay with SKBR-3, 85%; with MDA-MB231 it was 83%.

As to `Nc1nc(Nc2ccc(F)cc2)nc(-c2ccc(F)cc2)n1` [Compound 23], the viability at 10 µM in the assay with MCF-7 was found to be 93%; in the assay with SKBR-3 it was 100%; in the assay with MDA-MB231, 81%.

Turning to `Nc1nc(Nc2ccccc2Cl)nc(-c2ccc(F)cc2)n1` [Compound 24], the viability at 10 µM in the assay on MCF-7 is 91%; with SKBR-3, 75%; in the assay on MDA-MB231 it was 75%.

By GI50 is commonly meant the concentration giving 50% growth inhibition. For the molecule `CN(Cc1cnc2nc(N)nc(N)c2n1)c1ccc(C(=O)N[C@@H](CCC(=O)O)C(=O)O)cc1` [Methotrexate, reference compound], the GI50 was 5.79 ± 0.47 µM with MCF-7 (MCF7, 72 h, mean of three independent experiments ± SEM) and 0.01 ± 0.001 µM in the assay with MDA-MB231.

For the molecule `Cc1cn(-c2cc(NC(=O)c3ccc(C)c(Nc4nccc(-c5cccnc5)n4)c3)cc(C(F)(F)F)c2)cn1` [Nilotinib, reference compound], the concentration for 50% growth inhibition (GI50) in the assay on SKBR-3 (72 h, mean of three independent experiments ± SEM) turned out to be 9.6 ± 0.51 µM; in the assay with MDA-MB231, 0.04 ± 0.001 µM.
